The results in this text go back to ChEMBL document CHEMBL1156444, “Structure-based design, synthesis, evaluation, and crystal structures of transition state analogue inhibitors of inosine monophosphate cyclohydrolase” (J Biol Chem, 2007).

Experiment [1] in a line: Inhibition of Escherichia coli GAR transformylase.
Experiment [2] has as its target T1, Trifunctional purine biosynthetic protein adenosine-3 (Homo sapiens, UniProt P22102).
T1 sequence (P22102 whole entry): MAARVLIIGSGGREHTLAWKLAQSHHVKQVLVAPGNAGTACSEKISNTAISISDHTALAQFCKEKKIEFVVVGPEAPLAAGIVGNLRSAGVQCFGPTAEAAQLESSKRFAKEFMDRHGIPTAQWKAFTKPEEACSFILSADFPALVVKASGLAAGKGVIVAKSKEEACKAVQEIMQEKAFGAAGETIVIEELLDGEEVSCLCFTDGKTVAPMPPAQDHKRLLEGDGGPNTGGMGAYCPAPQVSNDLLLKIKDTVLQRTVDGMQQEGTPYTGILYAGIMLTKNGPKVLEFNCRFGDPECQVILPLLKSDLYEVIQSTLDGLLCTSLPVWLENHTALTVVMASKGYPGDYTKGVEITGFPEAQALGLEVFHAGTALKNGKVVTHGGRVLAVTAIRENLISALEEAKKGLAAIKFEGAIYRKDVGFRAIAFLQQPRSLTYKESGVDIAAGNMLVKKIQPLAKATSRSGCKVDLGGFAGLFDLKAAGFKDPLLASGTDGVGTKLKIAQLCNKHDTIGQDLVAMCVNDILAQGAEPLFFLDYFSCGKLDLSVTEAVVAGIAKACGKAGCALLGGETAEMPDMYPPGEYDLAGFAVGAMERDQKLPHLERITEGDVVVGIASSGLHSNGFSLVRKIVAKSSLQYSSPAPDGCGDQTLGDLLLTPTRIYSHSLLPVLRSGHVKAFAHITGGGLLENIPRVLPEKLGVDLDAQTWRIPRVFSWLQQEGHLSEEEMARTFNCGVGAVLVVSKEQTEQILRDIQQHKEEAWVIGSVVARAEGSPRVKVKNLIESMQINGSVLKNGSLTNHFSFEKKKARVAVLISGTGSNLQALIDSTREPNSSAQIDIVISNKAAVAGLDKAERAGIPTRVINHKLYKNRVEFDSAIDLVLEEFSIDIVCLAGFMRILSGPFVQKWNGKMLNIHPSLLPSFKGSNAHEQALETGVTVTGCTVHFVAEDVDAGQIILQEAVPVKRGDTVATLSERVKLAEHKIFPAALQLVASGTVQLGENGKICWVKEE
The experiment can be described thus: Inhibition of human recombinant GAR transformylase.

In experiment [3] the target is Bifunctional purine biosynthesis protein ATIC (Homo sapiens, UniProt P31939). The experiment can be described thus: Inhibition of IMPCH activity of human wild-type ATIC.
Sequence of Bifunctional purine biosynthesis protein ATIC (P31939 whole entry): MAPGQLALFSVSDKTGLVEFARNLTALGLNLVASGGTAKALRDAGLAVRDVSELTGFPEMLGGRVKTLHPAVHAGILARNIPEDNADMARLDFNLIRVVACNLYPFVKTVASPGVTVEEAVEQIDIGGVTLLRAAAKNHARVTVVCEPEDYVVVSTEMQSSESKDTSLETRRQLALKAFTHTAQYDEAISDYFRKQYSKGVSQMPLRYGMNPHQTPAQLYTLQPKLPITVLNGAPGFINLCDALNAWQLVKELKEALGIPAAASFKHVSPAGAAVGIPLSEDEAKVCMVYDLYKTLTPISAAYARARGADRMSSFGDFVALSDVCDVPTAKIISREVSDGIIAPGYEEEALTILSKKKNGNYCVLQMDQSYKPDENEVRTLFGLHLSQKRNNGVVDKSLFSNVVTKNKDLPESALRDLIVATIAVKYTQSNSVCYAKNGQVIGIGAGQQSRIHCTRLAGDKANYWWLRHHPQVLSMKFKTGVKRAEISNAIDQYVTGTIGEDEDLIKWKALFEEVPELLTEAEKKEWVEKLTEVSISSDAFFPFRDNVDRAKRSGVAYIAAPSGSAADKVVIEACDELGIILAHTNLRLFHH

Molecules are shown by their SMILES.

On to `O=C1NS(=O)(=O)Nc2nc[nH]c21`, for which the Ki in experiment [1] and in experiment [2] was greater than 100 µM throughout.

Turning to `O=C1NS(=O)(=O)Nc2c1ncn2[C@@H]1O[C@H](COP(=O)(O)O)[C@@H](O)[C@H]1O`, the inhibition constant (Ki) in experiment [1] is greater than 100 µM; in experiment [2], 4.8 µM.

Turning to `O=C1NS(=O)(=O)Nc2c1ncn2[C@@H]1O[C@H](CO)[C@@H](O)[C@H]1O`, the inhibition constant (Ki) in experiment [1] and in experiment [2] was greater than 100 µM throughout.

In turn, `NC(=O)c1ncn([C@@H]2O[C@H](COP(=O)(O)O)[C@@H](O)[C@H]2O)c1NC=O` [FAICAR] came in with a Ki in experiment [3] of 0.4 µM.

In turn, `Nc1nc2c(c(=O)[nH]1)C[C@@H](CCc1ccc(C(=O)N[C@@H](CCC(=O)O)C(=O)O)cc1)CN2` [LOMETREXOL] returned a Ki in experiment [1] of 0.1 µM.
